# In ChEMBL document CHEMBL1122681, “(Acylaryloxy)acetic acid diuretics. 5. [(2-Alkyl- and 2,2-disubstituted-1,3-dioxo-5-indanyl)oxy]acetic acids” (J Med Chem, 1984):
# Legend:
# Pan troglodytes [1] = experiment: Compound was evaluated for diuretic activity in chimpanzee measured as increase in the number of microequivalents of K+ /min at 1 mg/kg; type: functional, Urine
# Pan troglodytes [2] = experiment: Compound was evaluated for diuretic activity in chimpanzee measured as increase in the number of microequivalents of cl-/min at 5 mg/kg; type: functional, Urine
# Pan troglodytes [3] = experiment: Compound was evaluated for diuretic activity in chimpanzee measured as clearance of […] and urate after peroral administration of 5 mg/kg; type: functional, Urine; conditions: route oral
# Pan troglodytes [4] = experiment: (§1) Compound was evaluated for diuretic activity in chimpanzee measured as increase in the number of microequivalents of Na+ /min at 1 mg/kg; type: functional, Urine
# Pan troglodytes [5] = experiment: Compound was evaluated for diuretic activity in chimpanzee measured as increase in the number of microequivalents of Na+ /min at 5 mg/kg; type: functional, Urine
# Pan troglodytes [6] = experiment: (§2) Compound was evaluated for diuretic activity in chimpanzee measured as increase in the number of microequivalents of Cl- electrolyte/min at 1 mg/kg; type: functional, Urine
# Pan troglodytes [7] = experiment: Compound was evaluated for diuretic activity in chimpanzee measured as increase in the number of microequivalents of K+ /min at 5 mg/kg; type: functional, Urine
# Pan troglodytes [8] = experiment: Compound was evaluated for diuretic activity in chimpanzee measured as increase in volume of urine at 5 mg/kg; type: functional
# Pan troglodytes [9] = experiment: Compound was evaluated for diuretic activity in chimpanzee measured as clearance of […] and urate after intra venous administration of 5 mg/kg.; type: functional, Urine
# Pan troglodytes [10] = experiment: (§3) Compound was evaluated for diuretic activity in chimpanzee measured as increase in volume of urine at 1 mg/kg; type: ADME, organism-based; parameters: dose 1 mg/kg; conditions: in vivo
# Rattus norvegicus [11] = experiment: Compound was evaluated for diuretic activity administered orally in female rats measured as milliequivalents of Cl-x 100 / cage at 81 mg/kg; type: functional, Urine; conditions: route oral
# Rattus norvegicus [12] = experiment: Compound was evaluated for diuretic activity administered orally in female rats measured as milliequivalents of K+x 100 / cage at 3 mg/kg; type: functional, Urine; conditions: route oral
# Canis familiaris [13] = experiment: Compound was evaluated for diuretic activity, in female mongrel dogs by measuring volume of urine, after iv administration of 5 mg/kg (control/compound treatment results) Control = 1; type: ADME, organism-based, Canis lupus familiaris; parameters: dose 5 mg/kg, route intravenous; conditions: dog, in vivo
# Canis familiaris [14] = experiment: Compound was evaluated for diuretic activity, administered orally in female mongrel dogs (5 mg/kg) measured as milliequivalents of Cl-; type: functional, Canis lupus familiaris, Urine
# Pan troglodytes [15] = experiment: as §3; type: functional
# Rattus norvegicus [16] = experiment: Compound was evaluated for diuretic activity administered orally in female rats measured as milliequivalents of Na+x 100 / cage at 3 mg/kg; type: functional, Urine; conditions: route oral
# [17] = volume of urine at 9 mg/kg; type: ADME, organism-based; parameters: dose 9 mg/kg; conditions: in vivo
# Canis familiaris [18] = experiment: Compound was evaluated for diuretic activity, administered orally in female mongrel dogs (5 mg/kg) measured as milliequivalents of Na; type: functional, Canis lupus familiaris, Urine
# Rattus norvegicus [19] = experiment: Compound was evaluated for diuretic activity administered orally in female rats measured as milliequivalents of K+x 100 / cage at 27 mg/kg; type: functional, Urine; conditions: route oral
# Pan troglodytes [20] = experiment: Compound was evaluated for diuretic activity in chimpanzee measured as increase in the number of microequivalents of Cl- electrolyte/min at 5 mg/kg; type: functional, Urine
# Rattus norvegicus [21] = experiment: Compound was evaluated for diuretic activity administered orally in female rats measured as milliequivalents of K+x 100 / cage at 9 mg/kg; type: functional, Urine; conditions: route oral
# Rattus norvegicus [22] = experiment: Compound was evaluated for diuretic activity administered orally in female rats measured as milliequivalents of Cl-x 100 / cage at 3 mg/kg; type: functional, Urine; conditions: route oral
# Canis familiaris [23] = experiment: Compound was evaluated for diuretic activity, administered orally in female mongrel dogs (5 mg/kg) measured as milliequivalents of K; type: functional, Canis lupus familiaris, Urine
# Pan troglodytes [24] = experiment: Compound was evaluated for diuretic activity in chimpanzee measured as clearance of […] and urate after intra venous administration of 1 mg/kg.; type: functional, Urine
# Rattus norvegicus [25] = experiment: Compound was evaluated for diuretic activity administered orally in female rats measured as milliequivalents of K+x 100 / cage at 81 mg/kg; type: functional, Urine; conditions: route oral
# Canis familiaris [26] = organism: Canis familiaris; experiment: Volume of urine in dog; type: ADME, organism-based, Canis lupus familiaris; conditions: in vivo
# Rattus norvegicus [27] = experiment: Compound was evaluated for diuretic activity administered orally in female rats measured as milliequivalents of Cl-x 100 / cage at 9 mg/kg; type: functional, Urine; conditions: route oral
# Canis familiaris [28] = experiment: Compound was evaluated for diuretic activity, in female mongrel dogs by measuring amount of Na+ in urine after iv administration of 5 mg/kg (control/compound treatment results) Control = 79; type: functional, Canis lupus familiaris
# Rattus norvegicus [29] = experiment: Compound was evaluated for diuretic activity administered orally in female rats measured as milliequivalents of Na+x 100 / cage at 27 mg/kg; type: functional, Urine; conditions: route oral
# Canis familiaris [30] = experiment: Compound was evaluated for diuretic activity, in female mongrel dogs by measuring amount of Cl- in urine after iv administration of 5 mg/kg (control/compound treatment results) Control = 6; type: functional, Canis lupus familiaris
# Rattus norvegicus [31] = experiment: Compound was evaluated for diuretic activity administered orally in female rats measured as milliequivalents of Cl-+x 100 / cage at 27 mg/kg; type: functional, Urine; conditions: route oral
# Canis familiaris [32] = experiment: Compound was evaluated for diuretic activity, in female mongrel dogs by measuring amount of K+ in urine after iv administration of 5 mg/kg (control/compound treatment results) Control = 13; type: functional, Canis lupus familiaris
# [33] = volume of urine at 81 mg/kg; type: ADME, organism-based; parameters: dose 81 mg/kg; conditions: in vivo
# Rattus norvegicus [34] = experiment: Compound was evaluated for diuretic activity administered orally in female rats measured as milliequivalents of Na+x 100 / cage at 81 mg/kg; type: functional, Urine; conditions: route oral
# [35] = volume of urine at 27 mg/kg; type: ADME, organism-based; parameters: dose 27 mg/kg; conditions: in vivo
# [36] = volume of urine at 3 mg/kg; type: ADME, organism-based; parameters: dose 3 mg/kg; conditions: in vivo
# Rattus norvegicus [37] = experiment: Compound was evaluated for diuretic activity administered orally in female rats measured as milliequivalents of Na+x 100 / cage at 9 mg/kg; type: functional, Urine; conditions: route oral
# Pan troglodytes [38] = experiment: Compound was evaluated for diuretic activity in chimpanzee measured as clearance of […] and urate after intra venous administration of 0. 5 mg/kg.; type: functional, Urine
# Pan troglodytes [39] = experiment: as §1; type: functional, Urine; remark: listed apart in the source
# Pan troglodytes [40] = experiment: Compound was evaluated for diuretic activity in chimpanzee measured as increase in the number of microequivalents of K+ /min at 0.5 mg/kg; type: functional, Urine
# Pan troglodytes [41] = experiment: as §2; type: functional, Urine; remark: listed apart in the source
# Pan troglodytes [42] = experiment: Compound was evaluated for diuretic activity in chimpanzee measured as increase in the number of microequivalents of Na+ /min at 0.5 mg/kg; type: functional, Urine
# Pan troglodytes [43] = experiment: Compound was evaluated for diuretic activity in chimpanzee measured as increase in volume of urine at 0.5 mg/kg; type: functional
compound,measurement,setting,value
CCC1C(=O)c2cc(OC)c(Cl)c(Cl)c2C1=O (centres undefined),Increase,Pan troglodytes [1],26
same,Increase,Pan troglodytes [2],10
same,Delta C urate / delta C insulin,Pan troglodytes [3],0.008
same,Increase,Pan troglodytes [4],3
same,Increase,Pan troglodytes [5],4
same,Increase,Pan troglodytes [6],13
same,Increase,Pan troglodytes [7],27
same,Increase in volume,Pan troglodytes [8],0.1 mL/min
same,Delta C urate / delta C insulin,Pan troglodytes [9],0
same,Increase in volume,Pan troglodytes [10],0.1 mL/min
CCC1(CC)C(=O)c2cc(OCC(=O)O)c(C)c(Cl)c2C1=O,Activity,Rattus norvegicus [11],369
same,Activity,Rattus norvegicus [12],29
same,Urine volume,Canis familiaris [13],2 mL/min
same,Increase,Pan troglodytes [1],131
same,Activity,Canis familiaris [14],10
same,Increase in volume,Pan troglodytes [15],0.4 mL/min
same,Activity,Rattus norvegicus [16],70
same,Delta C urate / delta C insulin,Pan troglodytes [3],0.138
same,Urine volume,[17],26 mL
same,Activity,Canis familiaris [18],7
same,Increase,Pan troglodytes [4],25
same,Activity,Rattus norvegicus [19],62
same,Increase,Pan troglodytes [20],285
same,Increase,Pan troglodytes [5],290
same,Activity,Rattus norvegicus [21],43
same,Activity,Rattus norvegicus [22],82
same,Activity,Canis familiaris [23],5
same,Delta C urate / delta C insulin,Pan troglodytes [24],0.082
same,Activity,Rattus norvegicus [25],106
same,Increase,Pan troglodytes [6],123
same,Urine volume,Canis familiaris [26],570 mL
same,Activity,Rattus norvegicus [27],124
same,Activity,Canis familiaris [28],259 u equiv min-1
same,Increase,Pan troglodytes [7],132
same,Activity,Rattus norvegicus [29],158
same,Activity,Canis familiaris [30],157 u equiv min-1
same,Increase in volume,Pan troglodytes [8],2.7 mL/min
same,Activity,Rattus norvegicus [31],222
same,Activity,Canis familiaris [32],27 u equiv min-1
same,Urine volume,[33],38 mL
same,Activity,Rattus norvegicus [34],251
same,Urine volume,[35],33 mL
same,Urine volume,[36],27 mL
same,Activity,Rattus norvegicus [37],92
CC1(c2ccccc2)C(=O)c2cc(OCC(=O)O)c(Cl)c(Cl)c2C1=O (centres undefined),Increase,Pan troglodytes [1],25
same,Increase in volume,Pan troglodytes [15],0.6 mL/min
same,Delta C urate / delta C insulin,Pan troglodytes [38],0.01
same,Delta C urate / delta C insulin,Pan troglodytes [3],0.043
same,Increase,Pan troglodytes [39],2
same,Increase,Pan troglodytes [6],36
same,Increase,Pan troglodytes [40],31
same,Increase,Pan troglodytes [41],30
same,Increase,Pan troglodytes [42],29
same,Increase in volume,Pan troglodytes [43],0.3 mL/min
